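Each compound was tested at five concentrations against cells in 96-well plates for 48 hours. GI50 is the concentration that inhibits growth by half. Definition used: TGI = concentration required for complete inhibition of growth.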 Where only a bound is given, the exact number is not on record here.

Common to all, as to assay: NCI-60 cell line screen, 48 h
For experiment [1], the system named is NCI-H460 lung.
The subject of experiment [2] is OVCAR-4 ovarian.
Experiment [3] deals with MOLT-4 leukemia.
In experiment [4] the test system is SK-MEL-5 melanoma.
Experiment [5] concerns SNB-75 CNS.
Experiment [6] relates to A498 renal.
Experiment [7] has as its system NCI-H522 lung.

In the case of `NC1=NN(c2ccccc2)C(=O)C1/C(=N\NC(=O)c1cc2ccccc2cc1O)C(=O)Nc1cccc(C(F)(F)F)c1` (stereo not given), the TGI in experiment [1] was > 100 µM; in experiment [2] it was > 100 µM; in experiment [3], 65.9 µM; in experiment [4], 51.8 µM; in experiment [5], > 100 µM.

For `CC(=O)[CH-]C(=O)c1ccccc1.CC(=O)[CH-]C(=O)c1ccccc1.CC1(C)OCC(C2OC3OC(C)(C)OC3C2[O-])O1.CC1(C)OCC(C2OC3OC(C)(C)OC3C2[O-])O1.[Ti+4]` (stereo not given), the GI50 in experiment [1] was 11.3 µM; in experiment [2], 20.4 µM; in experiment [3] it was 7.39 µM; in experiment [5], 11 µM; in experiment [6] it was 15.7 µM. In addition, the TGI in experiment [1] is 28.4 µM; in experiment [2], 68.4 µM; in experiment [3], > 100 µM; in experiment [5], 28.5 µM; in experiment [6] it was 30.2 µM.

For `COC(=O)C(CC(C)=O)CS(=O)(=O)CC(=O)C(=O)Nc1cccc([N+](=O)[O-])c1` (stereo not given), the TGI in experiment [7], in experiment [1], in experiment [2], in experiment [4], in experiment [5] and in experiment [6] was > 100 µM throughout.

Turning to `Cc1cc(=O)n2c3c(c4c(cc13)c(CO)cc(=O)n4C)OC2`, the TGI is 17.7 µM in experiment [7]; > 100 µM in experiment [1]; > 100 µM in experiment [2]; 75.3 µM in experiment [4]; 70.5 µM in experiment [5]; 72.5 µM in experiment [6].

As for `Cc1ccc(NC(=O)CC/C(CC(=O)C(C)(C)C)=N/NC(=O)C[N+](C)(C)C)cc1C`, the TGI in experiment [1], in experiment [2], in experiment [3] and in experiment [4] was > 100 µM in each case.

Turning to `COC(=O)NN1C(C)=C(C(=O)OC)C2(C#N)C(C(=O)OC)=C(C)N(NC(=O)OC)C12N` (stereo not given), the TGI in experiment [7], in experiment [1], in experiment [2], in experiment [3] and in experiment [6] was > 100 µM throughout.

As to `C[C@]12CCC[C@H](O)[C@H]1C[C@H](CO)CC2`, the TGI in experiment [7], in experiment [1], in experiment [2], in experiment [3], in experiment [5] and in experiment [6] was > 100 µM in each case.

In the case of `N.N.O=P([O-])([O-])CN(CCN(CP(=O)([O-])[O-])CP(=O)([O-])[O-])CP(=O)([O-])[O-].[Pt+2]`, the GI50 in experiment [1], in experiment [2], in experiment [3] and in experiment [4] was > 100 µM each time. In addition, the TGI in experiment [1], in experiment [2], in experiment [3] and in experiment [4] was > 100 µM each time.

For the compound `CSc1nc2c(nc(N)n2C2OC(COC(C)=O)C(OC(C)=O)C(OC(C)=O)C2OC(C)=O)c(=O)n1C` (stereo not given), the TGI in experiment [1], in experiment [2], in experiment [3], in experiment [4], in experiment [5] and in experiment [6] was > 100 µM throughout.

In the case of `COC(=O)NC(=Nc1ccc(Oc2ccccc2)cc1NC=O)NC(=O)OC`, the TGI was 0.449 µM in experiment [7]; > 100 µM in experiment [2]; > 100 µM in experiment [3]; > 100 µM in experiment [4]; > 100 µM in experiment [5]; 1.08 µM in experiment [6].

For the compound `C/C=C(/CCC1NCCC2c3ccccc3NC12)[Si](C)(C)C` (stereo not given), the TGI in experiment [7] stood at 30.2 µM; in experiment [1] it was 12.4 µM; in experiment [2], 20.9 µM; in experiment [3], 16.4 µM; in experiment [4], 26 µM; in experiment [5], 21.4 µM.

`COC(=O)C1=Cc2cc(OC)c(OC)cc2[C@H](c2ccc(OC)c(OC)c2)C1C(=O)OC` (stereo not given in full): the TGI in experiment [1], in experiment [2], in experiment [3], in experiment [4], in experiment [5] and in experiment [6] was > 100 µM throughout.

As for `COC(=O)N/N=C(\C(=O)Nc1cccc([N+](=O)[O-])c1)c1nc2ccc([N+](=O)[O-])cc2[nH]c1=O`, the TGI in experiment [7] is 96.6 µM; in experiment [1] it was > 100 µM; in experiment [2], > 100 µM; in experiment [3], > 100 µM; in experiment [4], > 100 µM; in experiment [5], > 100 µM.

Regarding `NC(=O)c1ncn(CCN2CCN(C(=O)NCCCCCCNC(=O)N3CCN(CCn4cnc(C(N)=O)c4N)CC3)CC2)c1N`, the TGI in experiment [1], in experiment [2], in experiment [3], in experiment [4] and in experiment [5] was > 100 µM in each case.
